Data from patent US20140212401A1, “USE OF SYNTHETIC AND BIOLOGICAL FUNGICIDES IN COMBINATION FOR CONTROLLING HARMFUL FUNGI” (Bayer CropScience LP, priority 2009, published 2014).

Key:
[1] = tested on: Pseudoperonospora cubensis; experiment: Example 4: inoculated cucurbits, spray treatments, visual % infection of leaves; assay type: in vivo; settings: 28 days after first treatment
From the text: The results are compiled in Table 4 below. [table]

Sclerotinia sclerotiorum = experiment: Example 11: inoculated beans, spray treatments, visual % infection of plants; settings: Boscalid (CANTUS 1.0 kg/ha) application A
Description: (§1) Evaluation was carried out by visually determining the infected leaf areas in %.
Beans were cultivated and grown under standard conditions with adequate supply of water and nutrients. The test plants were inoculated with an aqueous spore suspension of Sclerotinia sclerotiorum. […] For comparison, a part of the plants was sprayed with boscalid alone (used as the commercial product CANTUS®, BASF; dose rate per treatment: 1.0 kg/ha; diluted with water to 500 L/ha). […] 28 and 35 days after the first treatment (0 or 7 days after last treatment), the extent of the development of the disease was determined visually in % infection of the plants.

Botrytis cinerea = experiment: Example 1: inoculated vine grapes cv. Riesling, spray treatments, visual % infection of racemes
Description: as §1
Vine grapes of the cultivar “Riesling” were grown under standard conditions with adequate supply of water and nutrients. The test plants were inoculated with an aqueous spore suspension of Botrytis cinerea. […] For comparison, a part of the plants was sprayed with boscalid alone (used as the commercial product CANTUS®, BASF; dose rate per treatment: 1.2 kg/ha; diluted with water to 800 L/ha). […] 95 and 100 days after the first treatment (25 or 30 days after last treatment), the extent of the development of the disease was determined visually in % infection of the racemes.

Monilinia laxa = experiment: Example 7: inoculated stonefruit, spray treatments, visual % infection of plant
Description: as §1
Stonefruit was grown under standard conditions with adequate supply of water and nutrients. The test plants were inoculated with an aqueous spore suspension of Monilinia laxa. […] Another part was sprayed both with boscalid and B. subtilis strain QST713. 5 and 11 days after the first treatment (0 or 6 days after last treatment), the extent of the development of the disease was determined visually in % infection of the plant.

Bremia lactucae = experiment: Example 23: inoculated lettuce, spray treatments, visual % infection of plant; settings: Boscalid (CANTUS 1 kg/ha) applications AB
Description: as §1
The test plants were inoculated with an aqueous spore suspension of Bremia lactucae. […] For comparison, a part of the plants was sprayed with boscalid alone (used as the commercial product CANTUS®, BASF; dose rate per treatment: 1 kg/ha; diluted with water to 500 L/ha). […] 7 days after the last treatment, the extent of the development of the disease was determined visually in % infection of the plant.

[2] = tested on: Botrytis cinirea (BOTRCI); experiment: Example 16: field trial grapevine cv. Müller-Thurgau, natural infection, percent infected clusters
Description: The trial was conducted under field conditions. Established grapevine plants (cv. Müller-Thurgau) were grown under standard conditions with adequate supply of water and nutrients. The application was repeated 4 to 9 times (see below) with 7-14 days intervals applying single products. No other products or compounds were applied for pathogen control. […] For comparison, a part of the plants was sprayed with dithianon alone (used as the commercial product DELAN®, Bayer CropScience; 0.75 kg/ha). […] BOTRCI infection occurred naturally. Disease incidences were evaluated 21 days after 9th application (21 DAT(9)). Disease levels observed were rated in percent infected clusters in the respective plot given as % attack.

[3] = tested on: Plasmopara viticola (PLASVI); experiment: Example 17: field trial grapevine cv. Müller-Thurgau, natural infection, percent infected leaf area and clusters; settings: for Attacked Leaf Area/Clusters 10 DAA(7): percent infected clusters; for Attacked Leaf Area/Clusters 4 DAA(9): percent infected leaf area
Description: The trial was conducted under field conditions. Established grapevine plants (cv. Müller-Thurgau) were grown under standard conditions with adequate supply of water and nutrients.
The application was repeated 4 to 9 times (see below) with 7-14 days intervals applying single products. No other products or compounds were applied for pathogen control. […] For comparison, a part of the plants was sprayed with dithianon alone (used as the commercial product DELAN®, Bayer CropScience; 0.75 kg/ha). […] Another part was sprayed both with dithianon and B. subtilis strain QST713. PLASVI infection occurred naturally. Disease incidences were evaluated 10 days after 7th application (10 DAA(7)) and 4 days after 9th application (4 DAA(9)). Disease levels observed were rated in percent infected leaf area (4 DAA(9)) and in percent infected clusters (10 DAA(7)) in the respective plot given as % attack.

[4] = tested on: Venturia inequalis (VENTIN); experiment: Example 18: field trial apple cv. Rubinette, natural infection, percent infected leaf area
Description: The trial was conducted under field conditions. Established apple plants (cv. Rubinette) were grown under standard conditions with adequate supply of water and nutrients. The application was repeated 6 to 10 times (see below) with 7-14 days intervals applying single products or product mixtures. No other products or compounds were applied for pathogen control. […] VENTIN infection occurred naturally. Disease incidences were evaluated 6 days after 10th application (6 DAT(10)). Disease levels observed were rated in percent infected leaf area in the respective plot given as % attack.

Plasmopara viticola = experiment: Example 3: inoculated vine grapes, spray treatments, visual % infection of racemes and leaves, severity and frequency; settings: Dithianon (DELAN WG 525 g/ha) applications ABCDEFGHI
Description: as §1
The test plants were inoculated with an aqueous spore suspension of Plasmopara viticola. […] Another part was sprayed both with dithianon and B. subtilis strain QST713. 67 and 73 days after the first treatment (4 or 10 days after last treatment), the extent of the development of the disease was determined visually in % infection of the racemes. 73 days after the first treatment (10 days after last treatment), the severity and the frequency of the infection on the racemes were determined visually [%]. 87 days after the first treatment (14 days after last treatment), the extent of the development of the disease was determined visually in % infection of the leaves.

Leveillula taurica = experiment: Example 10: inoculated peppers, spray treatments, visual % infection of leaves; settings: Metrafenone (VIVANDO 0.2 L/ha) applications AB
Description: as §1
The test plants were inoculated with an aqueous spore suspension of Leveillula taurica. […] For comparison, a part of the plants was sprayed with metrafenone alone (used as the commercial product VIVANDO®, BASF; dose rate per treatment: 0.2 L/ha; diluted with water to 800 L/ha). […] 35 and 42 days after the first treatment (7 or 14 days after last treatment), the extent of the development of the disease was determined visually in % infection of the leaves.

Sphaerotheca fuliginea [5] = experiment: Example 12: inoculated cucurbits, spray treatments, visual % infection of upperside of leaves; assay type: in vivo; settings: 38 days after first treatment, Metrafenone (VIVANDO 0.2 L/ha) applications ABC
From the text: The results are compiled in Table 12 below.

[6] = tested on: Erysiphe necator (UNCINE); experiment: Example 15: field trial grapevine cv. Müller-Thurgau, natural infection, percent infected clusters
Description: The trial was conducted under field conditions. Established grapevine plants (cv. Müller-Thurgau) were grown under standard conditions with adequate supply of water and nutrients. The application was repeated 3 to 6 times (see below) with 14 days intervals applying single products. No other products or compounds were applied for pathogen control. […] For comparison, a part of the plants was sprayed with metrafenone alone (used as the commercial product VIVANDO®, BASF; 0.2 L/ha). […] UNCINE infection occurred naturally. Disease incidences were evaluated 6 days after 5th application (6 DAT(5)) and 15 days after 6th application (15 DAT(6)). Disease levels observed were rated in percent infected clusters in the respective plot given as % attack.

Uncinula necator [7] = experiment: Example 13: inoculated grapes, spray treatments, visual % infection of raceme and leaves; assay type: in vivo
From the text: The results are compiled in Table 13 below.

Erysiphe necator = experiment: Example 29: inoculated grapes, spray treatments, visual % infection of clusters; settings: Metrafenone (VIVANDO 0.27 L/ha) applications ABCD
Description: Grapes were grown under standard conditions with adequate supply of water and nutrients. The test plants were inoculated with an aqueous spore suspension of Erysiphe necator. […] For comparison, a part of the plants was sprayed with metrafenone alone (used as the commercial product VIVANDO®, BASF; dose rate per treatment: 0.27 L/ha; diluted with water to 800 L/ha). […] 11 days after the 6th application, the extent of the development of the disease was determined visually in % infection of the clusters.

Sphaerotheca fuliginea [8] = experiment: Example 9: inoculated melons, spray treatments, visual % infection of plant
Description: as §1
Melons were cultivated and grown under standard conditions with adequate supply of water and nutrients. The test plants were inoculated with an aqueous spore suspension of Sphaerotheca fuliginea. […] For comparison, a part of the plants was sprayed with metrafenone alone (used as the commercial product VIVANDO®, BASF; dose rate per treatment: 0.2 L/ha; diluted with water to 500 L/ha). […] 27 and 34 days after the first treatment (1 or 8 days after last treatment), the extent of the development of the disease was determined visually in % infection of the plant.

Uncinula necator [9] = experiment: Example 2: inoculated vine grapes, spray treatments, visual % infection of racemes
Description: Vine grapes were grown under standard conditions with adequate supply of water and nutrients. The test plants were inoculated with an aqueous spore suspension of Uncinula necator. […] For comparison, a part of the plants was sprayed with metrafenone alone (used as the commercial product VIVANDO®, BASF; dose rate per treatment: 0.02 Vol.-%; diluted with water to 800 L/ha). […] 85 and 91 days after the first treatment (15 or 21 days after last treatment), the extent of the development of the disease was determined visually in % infection of the racemes.

Sphaerotheca fuliginea [10] = experiment: Example 27: inoculated cucumbers, spray treatments, visual % infection of leaves; settings: 38 days after first treatment; Metrafenone (VIVANDO 0.3 L/ha) applications ABC
Description: as §1
Cucumbers were cultivated and grown under standard conditions with adequate supply of water and nutrients. The test plants were inoculated with an aqueous spore suspension of Sphaerotheca fuliginea. […] For comparison, a part of the plants was sprayed metrafenone alone (used as the commercial product VIVANDO®, BASF; dose rate per treatment: 0.3 L/ha; diluted with water to 500 L/ha). […] 38 days after the first treatment, the extent of the development of the disease was determined visually in % infection of the leaves.

Cercospora beticola = experiment: Example 8: inoculated sugar beets, spray treatments, visual % infection of plant
Description: as §1
Sugar beets were cultivated and grown under standard conditions with adequate supply of water and nutrients. The test plants were inoculated with an aqueous spore suspension of Cercospora beticola. […] For comparison, a part of the plants was sprayed with pyraclostrobin alone (used as the commercial product HEADLINE®, BASF; dose rate per treatment: 0.6 L/ha; diluted with water to 400 L/ha). […] 46 and 53 days after the first treatment (7 or 14 days after last treatment), the extent of the development of the disease was determined visually in % infection of the plant.

[11] = Boscalid (CANTUS 1.2 kg/ha) applications AB
[12] = Boscalid (CANTUS 1.2 kg/ha) applications ABC
[13] = Boscalid application A (pyraclostrobin/boscalid mixture PRISTINE 0.66 g/ha)
[14] = Boscalid applications AB (pyraclostrobin/boscalid mixture PRISTINE 0.66 g/ha)
[15] = Dithianon (DELAN 0.75 kg/ha) applications ABCD
[16] = Dithianon (DELAN 0.75 kg/ha) applications ABCDEFGHI
[17] = Metrafenone (VIVANDO 0.2 L/ha) applications ABC
[18] = Metrafenone (VIVANDO 0.2 L/ha) applications ABCDEF
[19] = Metrafenone (VIVANDO 0.2 L/ha) applications ABCDE
[20] = Metrafenone (VIVANDO 0.2 L/ha) applications ABCDEFG
[21] = Metrafenone (VIVANDO 0.2 L/ha) application A
[22] = Metrafenone (VIVANDO 0.2 L/ha) applications AB
[23] = Metrafenone (VIVANDO 0.02 Vol.-%) applications ABC
[24] = Metrafenone (VIVANDO 0.02 Vol.-%) applications ABCD
[25] = Pyraclostrobin (HEADLINE 0.6 L/ha) application A
[26] = Pyraclostrobin (HEADLINE 0.6 L/ha) applications AB
[27] = Pyraclostrobin (HEADLINE 0.6 L/ha) applications ABC

CCCCCCCCc1c(CC)nc2ncnn2c1N [BAS 650, 5-ethyl-6-octyl-[1,2,4]triazolo[1,5-a]pyrimidine-7-ylamine]
Attack on Leaves ([1]; BAS 650 (BAS 650 00F 1.2 L/ha) applications AB): 7% | Attack on Leaves ([1]; BAS 650 (BAS 650 00F 1.2 L/ha) applications ABC): 6.2%

O=C(Nc1ccccc1-c1ccc(Cl)cc1)c1cccnc1Cl [Boscalid, boscalid]
Attack on Plant 28 DAT (Sclerotinia sclerotiorum): 30% | Attack on Plant 35 DAT (Sclerotinia sclerotiorum): 53% | Attack on Raceme 95 DAT (Botrytis cinerea; [11]): 35% | Attack on Raceme 100 DAT (Botrytis cinerea; [11]): 44% | Attack on Raceme 95 DAT (Botrytis cinerea; [12]): 28% | Attack on Raceme 100 DAT (Botrytis cinerea; [12]): 36% | Attack on Plant 5 DAT (Monilinia laxa; [13]): 1.8% | Attack on Plant 11 DAT (Monilinia laxa; [13]): 36% | Attack on Plant 5 DAT (Monilinia laxa; [14]): 1.8% | Attack on Plant 11 DAT (Monilinia laxa; [14]): 29% | Attack on Plant 7 DALT (Bremia lactucae): 14%

N#Cc1sc2c(=O)c3ccccc3c(=O)c=2sc1C#N [Dithianon, dithianon]
Attacked Clusters 21 DAT(9) [2, 15]: 12% | Attacked Clusters 21 DAT(9) [2, 16]: 15% | Attacked Leaf Area/Clusters 10 DAA(7) [3, 15]: 30% | Attacked Leaf Area/Clusters 10 DAA(7) [3, 16]: 25% | Attacked Leaf Area/Clusters 4 DAA(9) [3, 15]: 11% | Attacked Leaf Area/Clusters 4 DAA(9) [3, 16]: 7.5% | Attacked Leaf Area 6 DAT10 ([4]; Dithianon (DELAN 0.75 kg/ha) applications ABCDEF): 12% | Attacked Leaf Area 6 DAT10 ([4]; Dithianon (DELAN 0.75 kg/ha) applications ABCDEFGHIJ): 7.3% | Attack on Leaves 87 DAT (Plasmopara viticola): 25% | Attack on Raceme 67 DAT (Plasmopara viticola): 34% | Attack on Raceme 73 DAT (Plasmopara viticola): 48% | Frequency 73 DAT (Plasmopara viticola; infection on racemes): 37% | Severity 73 DAT (Plasmopara viticola; infection on racemes): 7.5%

COc1cc(C)c(C(=O)c2c(OC)ccc(Br)c2C)c(OC)c1OC [Metrafenone, metrafenone]
Attack on Plant 35 DAT (Leveillula taurica): 22% | Attack on Plant 42 DAT (Leveillula taurica): 43% | Attack on Leaves (Sphaerotheca fuliginea [5]): 50% | Attacked Clusters 6 DAT(5) [6, 17]: 7.9% | Attacked Clusters 15 DAT(6) [6, 17]: 26% | Attacked Clusters 6 DAT(5) [6, 18]: 2.2% | Attacked Clusters 15 DAT(6) [6, 18]: 4.2% | Attack on Leaves 76 DAT (Uncinula necator [7]; [19]): 4.3% | Attack on Leaves 90 DAT (Uncinula necator [7]; [19]): 35% | Attack on Raceme 76 DAT (Uncinula necator [7]; [19]): 8.3% | Attack on Raceme 90 DAT (Uncinula necator [7]; [19]): 43% | Attack on Leaves 76 DAT (Uncinula necator [7]; [20]): 3.0% | Attack on Leaves 90 DAT (Uncinula necator [7]; [20]): 13% | Attack on Raceme 76 DAT (Uncinula necator [7]; [20]): 6.0% | Attack on Raceme 90 DAT (Uncinula necator [7]; [20]): 22% | Attack on clusters 11 DAA (6) (Erysiphe necator): 25% | Attack on Plant 27 DAT (Sphaerotheca fuliginea [8]; [21]): 24% | Attack on Plant 34 DAT (Sphaerotheca fuliginea [8]; [21]): 32% | Attack on Plant 27 DAT (Sphaerotheca fuliginea [8]; [22]): 9.2% | Attack on Plant 34 DAT (Sphaerotheca fuliginea [8]; [22]): 14% | Attack on Raceme 85 DAT (Uncinula necator [9]; [23]): 26% | Attack on Raceme 91 DAT (Uncinula necator [9]; [23]): 32% | Attack on Raceme 85 DAT (Uncinula necator [9]; [24]): 11% | Attack on Raceme 91 DAT (Uncinula necator [9]; [24]): 14% | Attack on Leaves (Sphaerotheca fuliginea [10]): 15%

COC(=O)N(OC)c1ccccc1COc1ccn(-c2ccc(Cl)cc2)n1 [Pyraclostrobin, pyraclostrobin]
Attack on Plant 46 DAT (Cercospora beticola; [25]): 11% | Attack on Plant 53 DAT (Cercospora beticola; [25]): 17% | Attack on Plant 46 DAT (Cercospora beticola; [26]): 4.7% | Attack on Plant 53 DAT (Cercospora beticola; [26]): 5.7% | Attack on Plant 46 DAT (Cercospora beticola; [27]): 2.7% | Attack on Plant 53 DAT (Cercospora beticola; [27]): 3.7%
